Assay results reported in patent US9498460B1, “Halogenated tetracyclic compounds” (KING SAUD UNIVERSITY, priority 2016, dated 2016).
≈ marks a conversion by molar mass, not a printed value.

What was measured:
[1] = test system: hepatocellular carcinoma HepG2 cell line; experiment: MTT growth inhibition, HepG2; type: cell-based; details: for IC50: Homo sapiens, MTT test, 96-well plate, serial dilution, spread in brackets; for sensitivity of treated cancer cells, times higher: comparator not stated
Method: (§1) Growth inhibitions were measured in 96-well plates. Aliquots of 120 μL of the suspended cells (50,000 mL^−1) were given to 60 μL of a serial dilution of the inhibitor (S). After 5 days of incubations, growths were determined the MTT assay (MTT=3-(4,5-dimethylthiazol-2-yl)-2,5-diphenyltetrazolium bromide). Briefly, 20 μl MTT (5 mg/mL in PBS) were added to each well, and the plates were incubated for 2 h at 37° C., and 5% CO2-atmosphere in the cell incubator. The supernatants were then discarded and 200 μl of isopropanol/HCl were added to each well and mixed to dissolve the formazan crystals. The absorbance was then read at 550 nm using a microplate reader (Thermo Scientific, USA). The viability of the cells was calculated by dividing the absorbance average of the treated cells by the absorbance average of the control cells multiply 100%. […] The activities of the cells were plotted against the concentration of the drugs, and the IC50 values were calculated from the regression curve.
(§2) The cancer cell lines were incubated with serial dilution of each compound (from 313 pg ML^−1 to 5 mg ML^−1) in a 96-well plate for 4 days, and then tested for growth inhibition by MTT-Test.

[2] = test system: lung carcinoma cell line A549; experiment: MTT growth inhibition, A549; type: cell-based; details: for IC50: Homo sapiens, A549, MTT test, 96-well plate, serial dilution, spread in brackets; for sensitivity of treated cancer cells, times higher: cell line printed as A459, comparator not stated
Method: as §1, §2

[3] = test system: colorectal carcinoma HTC-116 cell line; experiment: MTT growth inhibition, HTC-116 (HCT 116); type: cell-based; details: for IC50: Homo sapiens, HCT-116, MTT test, 96-well plate, serial dilution, spread in brackets; for growth inhibition of third cell line (HCT): result in words
Method: as §1
The cancer cell lines were incubated with serial dilution of each compound (from 313 pg ML^−1 to 5 mg ML^−1) in a 96-well plate for 4 days, and then tested for growth inhibition by MTT-Test. […] Replacing the formyl groups of the two compounds with amino groups (Sub. 6 and Sub. 7) caused remarkable decreasing of cells sensitivities, and accordingly increasing of IC50 values of the two derivatives as shown in table 2. […] Moreover, the sensitivities of the treated cancer cells to 4 and 5 were 6 times higher in case of the […] cell line A459, and even 40 times higher in case of hepatocyte carcinoma cell line HepG2.

[4] = test system: Burkitts Lymphoma (BL) cell lines DG-75; details: does not involve caspases, DNA fragmentation or PARP cleavage; cited from earlier work

| Compound | IC50 [1] | IC50 [2] | IC50 [3] | melting point | sensitivity of treated cancer cells, times higher [1] | sensitivity of treated cancer cells, times higher [2] | growth inhibition of third cell line (HCT) [3] | in vitro antiproliferative activity against DG-75 [4] |
| --- | --- | --- | --- | --- | --- | --- | --- | --- |
| CNCC1CC2c3cccc(Cl)c3C1c1c(Cl)cccc12 (stereo not shown) [Compound 6, 1-(4,5-dichloro-9,10-dihydro-9,10-ethanoanthracen-11-yl)-N-methylmethanamine] | 12.7 µg/mL (≈ 39.8 µM) | 25.5 µg/mL (≈ 80.1 µM) | – | 290 °C | – | – | – | – |
| CNCC1CC2c3c(Cl)cccc3C1c1cccc(Cl)c12 (stereo not shown) [Compound 7, 1-(1,8-dichloro-9,10-dihydro-9,10-ethanoanthracen-11-yl)-N-methylmethanamine] | 13.8 µg/mL (≈ 43.4 µM) | 18.9 µg/mL (≈ 59.4 µM) | – | 310 °C | – | – | – | – |
| CNCCCC12CCC(c3ccccc31)c1ccccc12 [Maprotiline, 9,10-dihydro-N-methyl-9,10-ethanoanthracene-9-propanamine] | – | – | – | – | – | – | – | antiproliferative agent |

Continued, in another order:

| IC50 [1] | IC50 [2] | IC50 [3] | melting point | Compound | sensitivity of treated cancer cells, times higher [1] | sensitivity of treated cancer cells, times higher [2] | growth inhibition of third cell line (HCT) [3] | in vitro antiproliferative activity against DG-75 [4] |
| --- | --- | --- | --- | --- | --- | --- | --- | --- |
| 0.12 µg/mL (≈ 0.396 µM) | 1.1 µg/mL (≈ 3.63 µM) | 0.4 µg/mL (≈ 1.32 µM) | – | O=CC1CC2c3cccc(Cl)c3C1c1c(Cl)cccc12 (stereo not shown) [Compound 4, 4,5-dichloro-9,10-dihydro-9,10-ethanoanthracene-11-carbaldehyde] | 40 times | 6 times | able to inhibit the growth | – |
| 0.65 µg/mL (≈ 2.14 µM) | 3.71 µg/mL (≈ 12.2 µM) | 0.7 µg/mL (≈ 2.31 µM) | – | O=CC1CC2c3c(Cl)cccc3C1c1cccc(Cl)c12 (stereo not shown) [Compound 5, 1,8-dichloro-9,10-dihydro-9,10-ethanoanthracene-11-carbaldehyde] | 40 times | 6 times | able to inhibit the growth | – |
